The values that follow come from patent US7767679B2, “Sulfonylamino-derivatives as novel inhibitors of histone deacetylase” (Janssen Pharmaceutica N.V., priority 2002, dated 2010).

Data set [1] concerns the target histone deacetylase (HeLa nuclear extracts). Description: In vitro assay for inhibition of histone deacetylase. In kind it is biochemical. The conditions noted are these: HeLa nuclear extracts 60 μg/ml, [3H]acetylated histone H4 peptide substrate, 30 min. On the procedure: The in vitro assay for inhibition of histone deacetylase (see example C.1) measures the inhibition of HDAC enzymatic activity obtained with the compounds of formula (I).
HeLa nuclear extracts (supplier: Biomol) were incubated at 60 μg/ml with 2×10^−8 M of radiolabeled peptide substrate. As a substrate for measuring HDAC activity a synthetic peptide, i.e. the amino acids 14-21 of histone H4, was used. The substrate is biotinylated at the NH2-terminal part with a 6-aminohexanoic acid spacer, and is protected at the COOH-terminal part by an amide group and specifically [^3H]acetylated at lysine 16. The substrate, biotin-(6-aminohexanoic)Gly-Ala-([^3H]-acetyl-Lys-Arg-His-Arg-Lys-Val-NH2), was added in a buffer containing 25 mM Hepes, 1 M sucrose, 0.1 mg/ml BSA and 0.01% Triton X-100 at pH 7.4. After 30 min the deacetylation reaction was terminated by the addition of HCl and acetic acid. (final concentration […] respectively). After stopping the reaction, the free ^3H-acetate was extracted with ethylacetate. After mixing and centrifugation, the radioactivity in an aliquot of the upper (organic) phase was counted in β-counter.
For each experiment, controls (containing HeLa nuclear extract and DMSO without compound), a blank incubation (containing DMSO but no HeLa nuclear extract or compound) and samples (containing compound dissolved in DMSO and HeLa nuclear extract) were run in parallel. In first instance, compounds were tested at a concentration of 10^−5M. […] In each test the blank value was substracted from both the control and the sample values. The control sample represented 100% of substrate deactylation. For each sample the radioactivity was expressed as a percentage of the mean value of the controls. […] Herein the effects of test compounds are expressed as pIC50 (the negative log value of the IC50-value).

Data set [2] deals with A2780 ovarian carcinoma cells. Description: Antiproliferative activity on A2780 cells (MTT). It counts as cell-based. As to conditions: Homo sapiens, 96 h, four days of incubation, read-out: Cellular activity pIC50 (converted). On the procedure:
Cellular activity of the compounds of formula (I) was determined on A2780 tumour cells using a colorimetric assay for cell toxicity or survival (Mosmann Tim, Journal of Immunological Methods 65: 55-63, 1983)(see example C.2).
All compounds tested were dissolved in DMSO and further dilutions were made in culture medium. Final DMSO concentrations never exceeded 0.1% (v/v) in cell proliferation assays. Controls contained A2780 cells and DMSO without compound and blanks contained DMSO but no cells. MTT was dissolved at 5 mg/ml in PBS. A glycine buffer comprised of 0.1 M glycine and 0.1 M NaCl buffered to pH 10.5 with NaOH (1 N) was prepared (all reagents were from Merck).
The human A2780 ovarian carcinoma cells (a kind gift from Dr. T. C. Hamilton [Fox Chase Cancer Centre, Pennsylvania, USA]) were cultured in RPMI 1640 medium supplemented with 2 mM L-glutamine, 50 μg/ml gentamicin and 10% fetal calf serum. Cells were routinely kept as monolayer cultures at 37° C. in a humidified 5% CO2 atmosphere. Cells were passaged once a week using a trypsin/EDTA solution at a split ratio of 1:40. All media and supplements were obtained from Life Technologies. Cells were free of mycoplasma contamination as determined using the Gen-Probe Mycoplasma Tissue Culture kit (supplier: BioMérieux).
Cells were seeded in NUNC™ 96-well culture plates (Supplier: Life Technologies) and allowed to adhere to the plastic overnight. Densities used for plating were 1500 cells per well in a total volume of 200 μl medium. After cell adhesion to the plates, medium was changed and drugs and/or solvents were added to a final volume of 200 μl. Following four days of incubation, medium was replaced by 200 μl fresh medium and cell density and viability was assessed using an […] assay. To each well, 25 μl μl MTT solution was added and the cells were further incubated for 2 hours at 37° C. The medium was then carefully aspirated and the blue MT-formazan product was solubilized by addition of 25 μl glycine buffer followed by 100 μl of DMSO. […] Within an experiment, the results for each experimental condition are the mean of 3 replicate wells. For initial screening purposes, compounds were tested at a single fixed concentration of 10^−6 M. For active compounds, the experiments were repeated to establish full concentration-response curves. For each experiment, controls (containing no drug) and a blank incubation (containing no cells or drugs) were run in parallel. The blank value was subtracted from all control and sample values. For each sample, the mean value for cell growth (in absorbance units) was expressed as a percentage of the mean value for cell growth of the control. […] Herein the effects of test compounds are expressed as pIC50 (the negative log value of the IC50-value).

On to `O=C(NO)c1cnc(N2CCN(CCCNS(=O)(=O)c3ccc4ccccc4c3)CC2)nc1` (hydrate or solvate) [Co. No. 26], for which the melting point came out at 115 °C.

Regarding `O=C(NO)c1ccc(N2CCC(NS(=O)(=O)c3ccc4ccccc4c3)CC2)cc1` [Co. No. 1], the “Enzyme activity pIC50” value in data set [1] worked out at 6.523. In addition, in data set [2], the IC50 was 5280 nM.

`O=C(Nc1ccc(N2CCC(NS(=O)(=O)c3ccc(-c4ccccc4)cc3)CC2)cc1)/C(Cc1ccccc1)=N/O` [Co. No. 3] displayed a melting point of 262 °C. In data set [1], the “Enzyme activity pIC50” value is reported as less than 5. Moreover, the IC50 in data set [2] was 1800 nM.

Take `O=C(NO)c1cnc(N2CCC(NS(=O)(=O)c3ccc4ccccc4c3)CC2)nc1N1CCN(S(=O)(=O)c2ccc3ccccc3c2)CC1` [Co. No. 6]: the melting point came to 80 °C. Moreover, the “Enzyme activity pIC50” value in data set [1] is less than 5. For the same compound, the IC50 in data set [2] is 2090 nM.

The compound `O=C(NO)c1ccc(N2CCCC(NS(=O)(=O)c3ccc4ccccc4c3)CC2)nc1` (stereo not drawn) [Co. No. 10] displayed a melting point of 142 °C. Moreover, the “Enzyme activity pIC50” value in data set [1] is 6.893. The IC50 in data set [2] was 2120 nM.

As for `O=C(NO)c1cnc(N2CCC(NS(=O)(=O)N3CCOCC3)CC2)nc1` [Co. No. 25], the melting point is 217 °C. The “Enzyme activity pIC50” value in data set [1] stood at 6.449. For the same compound, in data set [2], the IC50 is more than 10000 nM.

Take `O=C(NO)c1cnc(N2CCN(CCCNS(=O)(=O)c3ccc4ccccc4c3)CC2)nc1` [Co. No. 26]: in data set [1], the “Enzyme activity pIC50” value is listed as 7.85. Further, the IC50 in data set [2] was 546 nM.

On to `CN(C1CCN(c2ncc(C(=O)NO)cn2)C1)S(=O)(=O)c1ccc2ccccc2c1` (stereo not drawn) [Co. No. 27], for which the melting point was found to be 158 °C. Further, in data set [1], the “Enzyme activity pIC50” value is recorded as 7.49. Besides, in data set [2], the IC50 was 1660 nM.

As to `O=C(NO)c1cnc(N2CCC(CNS(=O)(=O)N3CCOCC3)CC2)nc1` [Co. No. 28], the melting point stood at 217 °C. Also, the “Enzyme activity pIC50” value in data set [1] is given as 7.074. For the same compound, in data set [2], the IC50 is 7780 nM.

As for `CS(=O)(=O)c1ccc(-c2ccccc2S(=O)(=O)NCC2CCN(c3ncc(C(=O)NO)cn3)CC2)cc1` [Co. No. 30], the “Enzyme activity pIC50” value in data set [1] is recorded as 7.614. For the same compound, in data set [2], the IC50 was 2140 nM.

As for `Cc1cc(C(=O)NO)ccc1N1CCC(NS(=O)(=O)c2ccc3ccccc3c2)CC1` [compound 11], in data set [1], the “Enzyme activity pIC50” value is 5.829. Also, in data set [2], the IC50 is 1640 nM.

In the case of `O=C(NO)c1ccc(N2CCC(NS(=O)(=O)c3ccc4ccccc4c3)CC2)nc1` [compound 12], the “Enzyme activity pIC50” value in data set [1] was found to be 7.438. In addition, the IC50 in data set [2] was 2910 nM.

With `Cc1cc(C(=O)NO)ccc1N1CCC(NS(=O)(=O)c2ccc(-c3ccccc3)cc2)CC1` [compound 13], the “Enzyme activity pIC50” value in data set [1] was 5.428. In addition, the IC50 in data set [2] is 698 nM.

On to `O=C(NO)c1ccc(N2CCC(NS(=O)(=O)c3ccc(-c4ccccc4)cc3)CC2)cc1` [compound 14], for which the “Enzyme activity pIC50” value in data set [1] is reported as 6.116. Besides, the IC50 in data set [2] is 2090 nM.

As to `O=C(NO)c1ccc(N2CCC(NS(=O)(=O)c3ccc4ccccc4c3)C2)cc1` (stereo not drawn) [compound 16], the “Enzyme activity pIC50” value in data set [1] amounted to 6.293. Moreover, the IC50 in data set [2] is more than 10000 nM.

For `O=C(NO)c1ccc(N2CCC(NS(=O)(=O)c3ccc4ccccc4c3)C2)nc1` (stereo not drawn) [compound 17], the “Enzyme activity pIC50” value in data set [1] is reported as 6.95. Moreover, in data set [2], the IC50 was more than 10000 nM.

Regarding `O=C(NO)c1ccc(N2CCC(NS(=O)(=O)c3ccc(-c4ccccc4)cc3)C2)nc1` (stereo not drawn) [compound 18], the “Enzyme activity pIC50” value in data set [1] was determined as 5.321. Besides, in data set [2], the IC50 was 49.8 nM.

As for `O=C(Nc1ccc(N2CCC(NS(=O)(=O)c3ccc4ccccc4c3)CC2)cc1)/C(Cc1ccccc1)=N/O` [compound 19], the “Enzyme activity pIC50” value in data set [1] is given as less than 5. In data set [2], the IC50 was 4300 nM.

Turning to `O=C(NO)c1cnc(N2CCC(CNS(=O)(=O)c3ccc(-c4ccccc4)cc3)CC2)nc1` [compound 21], in data set [1], the “Enzyme activity pIC50” value is given as 8.199. For the same compound, in data set [2], the IC50 was 362 nM.

`CO[C@@H]1CN(c2ncc(C(=O)NO)cn2)CC[C@@H]1NS(=O)(=O)c1ccc2ccccc2c1` [compound 23]: in data set [1], the “Enzyme activity pIC50” value is recorded as 6.662. In addition, the IC50 in data set [2] is 3370 nM.

For `O=C(NO)c1cnc(N2CCCC(NS(=O)(=O)c3ccc4ccccc4c3)CC2)nc1` (stereo not drawn) [compound 24], the “Enzyme activity pIC50” value in data set [1] is recorded as 7.903. The IC50 in data set [2] is 1070 nM.

Consider `O=C(NO)c1cnc(N2CCC(NS(=O)(=O)c3ccc4ccccc4c3)C2)nc1` (stereo not drawn) [compound 31], for which the “Enzyme activity pIC50” value in data set [1] is 7.857. The IC50 in data set [2] is 5960 nM.

For `O=C(NO)c1cnc(N2CCN(CCNS(=O)(=O)c3ccc4ccccc4c3)CC2)nc1` [compound 32], the “Enzyme activity pIC50” value in data set [1] amounted to 7.526. Further, the IC50 in data set [2] was 556 nM.

Regarding `O=C(NO)c1cnc(N2CCC(N(CCO)S(=O)(=O)c3ccc4ccccc4c3)CC2)nc1` [compound 34], the “Enzyme activity pIC50” value in data set [1] is reported as 7.337. Besides, the IC50 in data set [2] was 2400 nM.

As to `COCCN(C1CCN(c2ncc(C(=O)NO)cn2)CC1)S(=O)(=O)c1ccc2ccccc2c1` [compound 35], the “Enzyme activity pIC50” value in data set [1] was found to be 7.046. The IC50 in data set [2] was 1160 nM.

As for `O=C(NO)c1cnc(N2CCC(CNS(=O)(=O)c3ccccc3-c3ccc(CO)cc3)CC2)nc1` [compound 36], the “Enzyme activity pIC50” value in data set [1] worked out at 7.265. Also, the IC50 in data set [2] is 1050 nM.

For the compound `O=C(NO)c1cnc(N2CCC(CNS(=O)(=O)c3ccccc3-c3cccc(CO)c3)CC2)nc1` [compound 37], in data set [1], the “Enzyme activity pIC50” value was determined as 7.341. Moreover, in data set [2], the IC50 was 2180 nM.

`O=C(NO)c1cnc(N2CCC(CNS(=O)(=O)c3ccccc3-c3ccoc3)CC2)nc1` [compound 38]: the “Enzyme activity pIC50” value in data set [1] stood at 7.154. Moreover, in data set [2], the IC50 is 1160 nM.

As for `Cc1cccc(-c2ccccc2S(=O)(=O)NCC2CCN(c3ncc(C(=O)NO)cn3)CC2)c1` [compound 39], the “Enzyme activity pIC50” value in data set [1] is 7.126. Besides, in data set [2], the IC50 was 885 nM.

`O=C(NO)c1cnc(N2CCC(CNS(=O)(=O)c3ccccc3-c3ccsc3)CC2)nc1` [compound 40]: the “Enzyme activity pIC50” value in data set [1] is 7.273. The IC50 in data set [2] was 685 nM.

As for `Cc1ccccc1-c1ccccc1S(=O)(=O)NCC1CCN(c2ncc(C(=O)NO)cn2)CC1` [compound 41], the “Enzyme activity pIC50” value in data set [1] is reported as 7.403. The IC50 in data set [2] is 471 nM.

Consider `COc1cccc(-c2ccccc2S(=O)(=O)NCC2CCN(c3ncc(C(=O)NO)cn3)CC2)c1` [compound 42], for which, in data set [1], the “Enzyme activity pIC50” value is 7.584. Also, the IC50 in data set [2] is 455 nM.

As for `O=C(NO)c1cnc(N2CCC(CNS(=O)(=O)c3ccccc3-c3cc4ccccc4o3)CC2)nc1` [compound 43], the “Enzyme activity pIC50” value in data set [1] came to 7.469. Also, the IC50 in data set [2] is 738 nM.

As to `CN(C)c1ccc(-c2ccccc2S(=O)(=O)NCC2CCN(c3ncc(C(=O)NO)cn3)CC2)cc1` [compound 44], the “Enzyme activity pIC50” value in data set [1] turned out to be 7.432. In addition, in data set [2], the IC50 is 643 nM.

For the compound `COc1ccc(-c2ccccc2S(=O)(=O)NCC2CCN(c3ncc(C(=O)NO)cn3)CC2)cc1` [compound 45], the “Enzyme activity pIC50” value in data set [1] is 7.371. Further, the IC50 in data set [2] was 513 nM.
